Measurements reported in patent US9383644B2, “Sulfonic acid derivative compounds as photoacid generators in resist applications” (Heraeus Precious Metals North America Daychem LLC, priority 2014, dated 2016).

Assays:
Type in all cases: physicochemical
[1] = Solubility of PAG in organic solvents (solvent added until completely dissolved); details: for Solubility (w/v %) Cyclohexanone / Solubility (w/v %) PGMEA / Solubility (w/v %) GBL: 20° C.; for Solubility in organic solvents (in words): PGMEA, cyclohexanone, GBL; for Solubility (w/v %) PGMEA / Solubility (w/v %) in PGMEA: Propylene glycol monomethyl ether acetate; for Solubility (w/v %) PGMEA: Table 8; for Solubility (w/v %) in PGMEA: Table 7; for Solubility (w/v %) GBL: γ-Butyrolactone
Description: Solubility is an important factor in the evaluation of a PAG. High solubility not only makes a PAG purified readily but also enables a PAG to be used for a wide range of concentrations in photoresists and in varied solvent systems. To test the solubility of a PAG, a solvent is slowly added until the PAG is completely dissolved and no turbidity is observed in the clear solution. Table 8 lists the solubility (w/v %) of some representative N-hydroxynaphthalimide sulfonate derivatives versus NIT in various organic solvents at 20° C. […] All compounds except for S-6 and O-12 show much higher solubility than the commercial benchmark (NIT).

[2] = Photoreactivity: photolysis of PAGs in acetonitrile at 365 nm, photoreaction constant from UV-Vis absorbance; details: for Relative Photoreactivity (normalized photoreaction constant) at 365 nm: acetonitrile, air, room temperature, 3×10^−5 M, NIT normalized to one; for Solubility x relative Photoreactivity: product of solubility in PGMEA and relative photoreactivity at 365 nm
Description: A photoresist composition typically comprises PAG, polymers, additives and solvents. The performance of a photoresist composition is mainly dependent on the properties of the PAG and polymer components. To formulate a high-performance photoresist composition, more photosensitive PAGs are typically selected. The photosensitivity of a PAG is typically directly related to the strength of the generated acid and the photoreactivity of the PAG. For a series of PAGs producing the same latent acid, their photosensitivity is related only to their photoreactivity. Thus evaluating the photosensitivity of a PAG can be achieved by studying its photoreactivity. The higher photoreactivity, the higher photosensitivity. The photoreactivity can be investigated by photolysis of a PAG in its dilute solution under low exposure intensity (to avoid side reactions which don't generate the desired acid). The change in the concentration of a PAG upon irradiation can be determined by measuring the absorbance of the PAG at the maximum absorption wavelength.
Photolysis of PAGs was carried out in acetonitrile in air at room temperature. The sodium salt of tetrabromophenol blue (TBPBNa), an acid indicator dye, which has a maximum absorption at 618 nm, was purchased from Aldrich (indicator grade) and used as received. Irradiation of the solution of the PAGs (3×10^−5 M) was performed using a Cole-Parmer UV 15 W bench lamp (EW-97605-50) at 365 nm. Light intensity was measured using an UV Power Puck II radiometer from EIT Inc. UV-Vis spectra were run on a Thermo Scientific Evolution 201 UV-visible spectrophotometer.
Photolysis of NIT, comparative compound A and B, S-3, and S-11 was examined in acetonitrile. The absorption band at 400 nm gradually decreases upon irradiation, indicating the progress of photoreaction with the increase of exposure dose of energy. Assuming the photoreaction is first-order, plot of natural log of changes in absorbance with exposure dose of energy gives the photoreaction constant of S-3 (i.e., the slope of the linear trendline) (FIG. 3). The photoreaction constants of other compounds were similarly determined under the same irradiation condition. Comparing the constants of A, B, S-3, and S-11 with that of NIT normalized to one gives the relative photoreactivity (Table 7). […] The formation of acid upon irradiation was confirmed by observing the spectral changes of the acid indicator, TBPBNa at 618 nm.

[3] = UV absorbance of PAG compounds (FIG. 1); details: for Absorbance at i-, h-, and g-lines of a mercury lamp (in words): versus NIT
Description: FIG. 1 is a graph illustrating the UV absorbance of certain PAG compounds of the invention versus the UV absorbance of certain prior art PAG compounds;
Referring to FIG. 1, the PAG compounds of the invention have excellent solubility in organic solvents and strong absorption at i-, h-, and g-lines of a mercury lamp.

Solubility (w/v %) Cyclohexanone [1] [% w/v %]	Solubility in organic solvents (in words) [1]	Solubility (w/v %) PGMEA [1] [% w/v %]	Solubility (w/v %) in PGMEA [1] [% w/v %]	Solubility (w/v %) GBL [1] [% w/v %]	Relative Photoreactivity (normalized photoreaction constant) at 365 nm [2]	Solubility x relative Photoreactivity [2] [%]	Strong absorption band [3] [nm]	Absorbance at i-, h-, and g-lines of a mercury lamp (in words) [3]	Compound
3.5	much lower	1.0	1.0	1.1	2.5	2.5			O=C1c2cccc3c(C#Cc4ccccc4)ccc(c23)C(=O)N1OS(=O)(=O)C(F)(F)F [Comparative B, reference compound]
9.0		2.0		1.6			364	much larger than that of NIT	O=C1c2cccc3c(Oc4ccccc4)ccc(c23)C(=O)N1OS(=O)(=O)C(F)(F)F [Compound O-12]
5.3		1.9		1.2			400	much larger than that of NIT	CC(C)(C)c1ccc(Sc2ccc3c4c(cccc24)C(=O)N(OS(=O)(=O)C(F)(F)F)C3=O)cc1 [Compound S-6]
5.9		1.7	1.7	2.2	1.0	1.7			O=C1c2cccc3cccc(c23)C(=O)N1OS(=O)(=O)C(F)(F)F [NIT, N-Hydroxynaphthalimide triflate, reference compound]
4.1		1.1	1.1	0.9	13.5	14.9			CCCCSc1ccc2c3c(cccc13)C(=O)N(OS(=O)(=O)C(F)(F)F)C2=O [Comparative A, reference compound]
86.4	extremely high solubility	53.9	53.9	105.7	14.2	765.4			COC(C)CCOC(=O)CCSc1ccc2c3c(cccc13)C(=O)N(OS(=O)(=O)C(F)(F)F)C2=O (stereo not shown) [Compound S-11]
37.5	extremely high solubility	11.7		67.8					COC(C)CCOC(=O)CCSc1ccc2c3c(cccc13)C(=O)N(OS(=O)(=O)c1ccc(C)cc1)C2=O (stereo not shown) [Compound S-43]

Compound	Solubility (w/v %) Cyclohexanone [1] [% w/v %]	Solubility in organic solvents (in words) [1]	Solubility (w/v %) PGMEA [1] [% w/v %]	Solubility (w/v %) in PGMEA [1] [% w/v %]	Solubility (w/v %) GBL [1] [% w/v %]	Relative Photoreactivity (normalized photoreaction constant) at 365 nm [2]	Solubility x relative Photoreactivity [2] [%]	Strong absorption band [3] [nm]	Absorbance at i-, h-, and g-lines of a mercury lamp (in words) [3]
CC(C)Sc1ccc2c3c(cccc13)C(=O)N(OS(=O)(=O)C(F)(F)F)C2=O [Compound S-3]	16.6	much higher solubility than comparative compound A	7.2	7.2	8.1	13.3	95.8	400	much larger than that of NIT
